Experimental data as given in ChEMBL document CHEMBL3259799, “New melatonin-N,N-dibenzyl(N-methyl)amine hybrids: potent neurogenic agents with antioxidant, cholinergic, and neuroprotective properties as innovative drugs for Alzheimer's disease” (J Med Chem, 2014).
Calls of active or inactive are those of the source. The calls are words filed in the database; no cut-off is given here.

Assays:
[1] = Permeability of the compound by PAMPA; format: physicochemical; conditions: read-out: permeability
[2] = Antioxidant activity assessed as oxygen radical absorbance capacity after 15 mins fluorescence assay relative to trolox; format: functional
[3] = Cytotoxicity against human SH-SY5Y cells assessed as cell viability at 1 uM after 24 hrs by LDH assay relative to control; format: cell-based; conditions: read-out: Activity
[4] = test system: SH-SY5Y; test: Neuroprotective activity in human SH-SY5Y cells assessed as protection from rotenone/oligomycin A-induced mitochondrial ROS at 1 uM incubated for 24 hrs prior to rotenone/oligomycin A challenge measured after 24 hrs by LDH assay; format: functional
[5] = molecular target: Acetylcholinesterase (Homo sapiens, UniProt P22303)
Description: Inhibition of human recombinant AchE using acetylthiocholine iodide as substrate incubated for 5 mins prior to substrate addition measured after 5 mins by Ellman method

[6] = organism: Rattus norvegicus; test: Neurogenic activity in Wistar rat Primary neural stem cells assessed as cell maturation by measuring TuJ1 at 10 uM after 48 hrs by DAPI staining-based immunohistochemistry; format: functional
[7] = organism: Rattus norvegicus; test: Neurogenic activity in Wistar rat Primary neural stem cells assessed as cell maturation by measuring MAP-2 at 10 uM after 48 hrs by DAPI staining-based immunohistochemistry; format: functional
[8] = organism: Homo sapiens; test: Inhibition of human BuChE using butyrylthiocholine as substrate at 10 uM incubated for 5 mins prior to substrate addition measured after 5 mins by Ellman method
[9] = test system: SH-SY5Y; test: Cytotoxicity against human SH-SY5Y cells at 10 uM after 48 hrs by MTT assay relative to control; format: cell-based
[10] = test system: SH-SY5Y; test: Cytotoxicity against human SH-SY5Y cells at 10 uM after 48 hrs by LDH assay relative to control; format: cell-based

Chain of Acetylcholinesterase (P22303 whole entry): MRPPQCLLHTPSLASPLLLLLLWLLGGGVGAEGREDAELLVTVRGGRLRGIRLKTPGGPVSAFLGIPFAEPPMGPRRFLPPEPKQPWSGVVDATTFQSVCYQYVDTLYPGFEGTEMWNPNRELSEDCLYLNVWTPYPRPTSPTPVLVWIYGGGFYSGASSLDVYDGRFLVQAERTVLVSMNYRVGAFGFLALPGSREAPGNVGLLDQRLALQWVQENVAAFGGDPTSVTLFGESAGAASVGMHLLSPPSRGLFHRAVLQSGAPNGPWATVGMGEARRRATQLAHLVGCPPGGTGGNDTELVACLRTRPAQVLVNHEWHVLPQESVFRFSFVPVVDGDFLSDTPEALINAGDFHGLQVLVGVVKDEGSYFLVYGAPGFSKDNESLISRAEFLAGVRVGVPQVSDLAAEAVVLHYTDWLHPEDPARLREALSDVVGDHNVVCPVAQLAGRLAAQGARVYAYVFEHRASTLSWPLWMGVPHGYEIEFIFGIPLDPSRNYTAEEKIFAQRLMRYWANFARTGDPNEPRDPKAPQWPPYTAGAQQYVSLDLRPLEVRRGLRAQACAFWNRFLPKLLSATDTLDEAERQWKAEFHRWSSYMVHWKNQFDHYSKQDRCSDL

Compound	Papp [1] [×10⁻⁶ cm/s]	Activity [2]	viability at 24 h, 1 µM [3] [%]	Activity [4] [%]	IC50 [5] [µM]	Activity [6]	Activity [7]	inhibition [8] [%]	Activity [9]	Activity [10]
COc1ccc2c(CCNC(=O)c3ccc(CN(C)Cc4ccccc4)cc3)c[nH]c2c1	7.2	1.5	100	12	4.1	–	–	–	–	–
COc1cccc(CN(C)Cc2ccc(C(=O)NCCc3c[nH]c4ccccc34)cc2)c1	8.8	2.7	100	12	3.8	–	–	–	–	–
CN(Cc1ccccc1)Cc1ccc(C(=O)NCCc2c[nH]c3cc(F)ccc23)cc1	6.6	2.1	100	12	2.5	–	–	–	–	–
COc1ccc2[nH]cc(CCNC(C)=O)c2c1	–	2.4	–	–	–	Active	Active	–	–	–
CN(Cc1ccc(C(=O)NCCc2c[nH]c3ccccc23)cc1)Cc1cccc(Cl)c1	7.1	2.9	100	12	5.1	–	–	38	–	–
COc1ccc2[nH]cc(CCNC(=O)c3ccc(CN(C)Cc4ccccc4OC)cc3)c2c1	9.9	2.4	100	12	5.4	–	–	47	–	–
COc1ccc2[nH]cc(CCNC(=O)c3ccc(CN(C)Cc4cccc(Cl)c4)cc3)c2c1	7.9	2.6	100	12	5.6	–	–	38	–	–
COc1ccccc1CN(C)Cc1ccc(C(=O)NCCc2c[nH]c3ccccc23)cc1	8.8	2.9	100	12	4.7	Active	Active	–	Non-toxic	Non-toxic
COc1ccc2c(CCNC(=O)c3ccc(CN(C)Cc4cccc(Cl)c4)cc3)c[nH]c2c1	7.9	1.8	100	12	2.1	–	–	22	–	–
COc1ccc2[nH]cc(CCNC(=O)c3ccc(CN(C)Cc4ccccc4Cl)cc3)c2c1	5.9	2.5	100	27	2.6	–	–	37	–	–
COc1ccc2[nH]cc(CCNC(=O)c3ccc(CN(C)Cc4ccccc4)cc3)c2c1	7.1	2.5	100	36	6.1	Active	Active	–	Non-toxic	Non-toxic
COc1cccc(CN(C)Cc2ccc(C(=O)NCCc3c[nH]c4ccc(OC)cc34)cc2)c1	8.7	2.5	100	40	6.8	Active	Active	45	Non-toxic	Non-toxic
CN(Cc1ccc(C(=O)NCCc2c[nH]c3ccccc23)cc1)Cc1ccccc1Cl	5.8	2.8	100	12	3.8	–	–	38	–	–
CN(Cc1ccccc1)Cc1ccc(C(=O)NCCc2c[nH]c3ccc(O)cc23)cc1	5	4.3	100	12	4.2	–	–	–	–	–
CN(Cc1ccccc1)Cc1ccc(C(=O)NCCc2c[nH]c3ccccc23)cc1	7.4	3.2	100	12	1.9	–	–	–	–	–
CC(=O)NCCc1c(Cc2ccccc2)[nH]c2ccccc12	–	–	–	–	–	inactive	inactive	–	–	–
